*1 amine or outer side, *2 acyl side, *3 side chain or, on linkers, in order; H or OH if unused. Where a SMILES comes first, the peptide text is derived from it. Bridges are numbered along the chain shown (N, C = ends). [ ]: non-standard residue; d: D form. The star is where a group is joined. hTyr(3S-OH,4S-OH,3'-OSO3H) = N[C@H](C(=O)O)[C@H](O)[C@@H](O)c1ccc(O)c(OS(=O)(=O)O)c1; Orn(4R-OH,5R-OH) = O=C([C@H](C[C@@H](O)[C@@H](O)N[*:3])N[*:1])[*:2]; Pro(3S-OH,4S-Me) = C[C@H]1CN[C@H](C(=O)O)[C@H]1O; X1 = CCCCCOc1ccc(-c2cc(-c3ccc(C(=O)*)cc3)no2)cc1; Gln(3R-OH) = NC(=O)C[C@@H](O)[C@H](N)C(=O)O; Hyp = O=C(O)[C@@H]1C[C@@H](O)CN1
How the values were obtained:
[1] = molecular target: Mu-type opioid receptor (Homo sapiens, UniProt P35372)
Chain of Mu-type opioid receptor (P35372 whole entry): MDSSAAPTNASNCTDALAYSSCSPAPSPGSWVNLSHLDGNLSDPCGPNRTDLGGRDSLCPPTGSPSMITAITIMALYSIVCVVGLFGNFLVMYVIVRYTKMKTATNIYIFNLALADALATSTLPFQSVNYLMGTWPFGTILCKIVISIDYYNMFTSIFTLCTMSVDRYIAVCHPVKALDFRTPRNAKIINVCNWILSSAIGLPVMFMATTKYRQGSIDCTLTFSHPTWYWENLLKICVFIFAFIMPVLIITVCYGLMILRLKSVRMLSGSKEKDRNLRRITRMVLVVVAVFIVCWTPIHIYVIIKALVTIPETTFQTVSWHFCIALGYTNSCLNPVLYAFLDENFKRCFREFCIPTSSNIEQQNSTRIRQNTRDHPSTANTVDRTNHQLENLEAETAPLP

[2] = molecular target: Prothrombin (Homo sapiens, UniProt P00734); assay type: functional
[3] = molecular target: T1, 5-hydroxytryptamine receptor 1A (Homo sapiens, UniProt P08908)
T1 sequence (P08908 whole entry): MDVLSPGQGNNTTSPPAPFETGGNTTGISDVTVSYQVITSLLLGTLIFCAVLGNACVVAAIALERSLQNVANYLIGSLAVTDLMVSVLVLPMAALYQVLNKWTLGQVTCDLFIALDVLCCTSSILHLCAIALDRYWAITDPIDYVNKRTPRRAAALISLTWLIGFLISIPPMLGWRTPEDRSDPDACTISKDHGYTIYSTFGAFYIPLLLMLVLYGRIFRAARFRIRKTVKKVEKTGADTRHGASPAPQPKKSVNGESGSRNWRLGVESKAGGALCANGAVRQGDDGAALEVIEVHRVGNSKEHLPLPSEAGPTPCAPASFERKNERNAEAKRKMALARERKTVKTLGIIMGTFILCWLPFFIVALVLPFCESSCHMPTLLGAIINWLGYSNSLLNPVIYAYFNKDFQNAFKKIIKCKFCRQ

[4] = molecular target: 3',5'-cyclic-AMP phosphodiesterase 4A (Homo sapiens, UniProt P27815); assay type: functional
[5] = molecular target: D(1A) dopamine receptor (Homo sapiens, UniProt P21728)
Chain of D(1A) dopamine receptor (P21728 whole entry): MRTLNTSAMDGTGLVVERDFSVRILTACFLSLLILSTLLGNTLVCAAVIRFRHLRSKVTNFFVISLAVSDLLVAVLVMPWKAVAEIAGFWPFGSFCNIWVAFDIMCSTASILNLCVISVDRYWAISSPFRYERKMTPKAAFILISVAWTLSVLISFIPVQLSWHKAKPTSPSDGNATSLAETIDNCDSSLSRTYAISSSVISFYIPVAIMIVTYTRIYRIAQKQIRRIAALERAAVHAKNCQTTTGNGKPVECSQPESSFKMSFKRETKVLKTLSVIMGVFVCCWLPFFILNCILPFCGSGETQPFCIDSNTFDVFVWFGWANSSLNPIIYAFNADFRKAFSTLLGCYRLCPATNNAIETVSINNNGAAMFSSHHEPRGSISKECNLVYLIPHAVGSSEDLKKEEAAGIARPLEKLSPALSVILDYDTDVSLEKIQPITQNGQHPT

[6] = molecular target: 5-hydroxytryptamine receptor 2B (Homo sapiens, UniProt P41595); assay type: functional, cell-based
[7] = molecular target: T2, Muscarinic acetylcholine receptor M2 (Homo sapiens, UniProt P08172)
T2 sequence (P08172 whole entry): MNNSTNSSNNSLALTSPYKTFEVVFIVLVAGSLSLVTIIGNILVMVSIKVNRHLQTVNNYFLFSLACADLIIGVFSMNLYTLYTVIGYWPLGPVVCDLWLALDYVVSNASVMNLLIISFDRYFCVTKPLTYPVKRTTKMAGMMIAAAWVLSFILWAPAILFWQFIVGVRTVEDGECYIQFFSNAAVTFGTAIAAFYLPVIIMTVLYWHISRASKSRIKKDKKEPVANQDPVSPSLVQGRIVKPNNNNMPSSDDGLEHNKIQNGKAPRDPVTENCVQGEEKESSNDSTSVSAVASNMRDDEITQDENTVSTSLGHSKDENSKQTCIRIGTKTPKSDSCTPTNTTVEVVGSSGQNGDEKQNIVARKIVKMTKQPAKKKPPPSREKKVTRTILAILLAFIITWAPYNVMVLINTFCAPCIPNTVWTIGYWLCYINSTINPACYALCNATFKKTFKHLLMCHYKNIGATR

[8] = molecular target: T3, Prostaglandin G/H synthase 1 (Homo sapiens, UniProt P23219); assay type: functional
T3 sequence (P23219 whole entry): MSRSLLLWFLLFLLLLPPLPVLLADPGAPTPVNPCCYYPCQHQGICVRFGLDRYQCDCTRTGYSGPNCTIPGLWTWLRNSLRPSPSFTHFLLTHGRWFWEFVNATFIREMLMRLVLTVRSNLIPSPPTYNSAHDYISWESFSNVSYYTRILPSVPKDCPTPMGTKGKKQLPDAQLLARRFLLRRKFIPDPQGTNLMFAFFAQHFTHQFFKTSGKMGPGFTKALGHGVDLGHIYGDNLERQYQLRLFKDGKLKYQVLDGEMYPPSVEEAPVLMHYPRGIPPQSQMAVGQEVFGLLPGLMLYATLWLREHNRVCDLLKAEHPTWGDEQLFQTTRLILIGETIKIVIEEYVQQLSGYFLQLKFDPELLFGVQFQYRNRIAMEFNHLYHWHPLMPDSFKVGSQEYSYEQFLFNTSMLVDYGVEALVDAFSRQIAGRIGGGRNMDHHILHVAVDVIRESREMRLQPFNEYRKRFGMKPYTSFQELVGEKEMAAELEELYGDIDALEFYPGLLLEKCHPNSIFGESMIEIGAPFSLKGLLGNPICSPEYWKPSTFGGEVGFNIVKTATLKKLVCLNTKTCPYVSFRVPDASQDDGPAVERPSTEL

[9] = molecular target: D(3) dopamine receptor (Homo sapiens, UniProt P35462)
Chain of D(3) dopamine receptor (P35462 whole entry): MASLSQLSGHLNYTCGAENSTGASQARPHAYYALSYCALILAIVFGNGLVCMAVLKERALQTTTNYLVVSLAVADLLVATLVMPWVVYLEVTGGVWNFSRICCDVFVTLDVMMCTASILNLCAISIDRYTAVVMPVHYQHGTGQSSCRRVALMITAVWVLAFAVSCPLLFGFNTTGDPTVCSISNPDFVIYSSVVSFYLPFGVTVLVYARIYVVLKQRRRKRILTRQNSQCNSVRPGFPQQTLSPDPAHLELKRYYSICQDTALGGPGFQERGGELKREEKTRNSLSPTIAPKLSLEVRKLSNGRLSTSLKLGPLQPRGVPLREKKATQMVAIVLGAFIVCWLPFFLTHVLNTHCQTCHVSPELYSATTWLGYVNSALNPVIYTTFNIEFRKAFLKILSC

[10] = molecular target: T4, Thromboxane A2 receptor (Homo sapiens, UniProt P21731); assay type: functional, cell-based
T4 sequence (P21731 whole entry): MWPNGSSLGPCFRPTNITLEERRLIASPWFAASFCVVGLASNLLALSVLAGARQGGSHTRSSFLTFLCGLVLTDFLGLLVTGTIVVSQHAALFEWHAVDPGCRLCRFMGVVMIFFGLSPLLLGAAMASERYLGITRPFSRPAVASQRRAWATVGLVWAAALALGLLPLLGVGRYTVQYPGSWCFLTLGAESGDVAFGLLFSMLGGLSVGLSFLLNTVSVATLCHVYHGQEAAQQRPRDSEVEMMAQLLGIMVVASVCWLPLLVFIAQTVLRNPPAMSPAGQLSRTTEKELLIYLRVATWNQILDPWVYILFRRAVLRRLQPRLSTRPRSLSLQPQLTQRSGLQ

[11] = molecular target: T5, Amine oxidase [flavin-containing] A (Homo sapiens, UniProt P21397); assay type: functional
T5 sequence (P21397 whole entry): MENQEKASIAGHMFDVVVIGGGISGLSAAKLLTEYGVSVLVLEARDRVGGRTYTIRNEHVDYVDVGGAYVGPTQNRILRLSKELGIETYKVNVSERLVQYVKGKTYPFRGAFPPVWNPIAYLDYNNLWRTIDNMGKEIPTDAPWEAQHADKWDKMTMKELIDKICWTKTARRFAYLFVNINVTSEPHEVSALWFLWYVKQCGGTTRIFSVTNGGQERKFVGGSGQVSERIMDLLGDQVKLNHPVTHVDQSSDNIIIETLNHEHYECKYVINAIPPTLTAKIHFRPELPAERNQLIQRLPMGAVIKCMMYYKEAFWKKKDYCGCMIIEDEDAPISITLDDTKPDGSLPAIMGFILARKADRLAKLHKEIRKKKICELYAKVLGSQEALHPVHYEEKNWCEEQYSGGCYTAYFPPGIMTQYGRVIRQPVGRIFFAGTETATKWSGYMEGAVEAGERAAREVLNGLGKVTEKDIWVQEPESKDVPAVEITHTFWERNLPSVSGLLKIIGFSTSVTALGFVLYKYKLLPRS

[12] = molecular target: T4, Thromboxane A2 receptor; assay type: functional, cell-based; remark: listed apart in the source
[13] = molecular target: Sodium-dependent dopamine transporter (Homo sapiens, UniProt Q01959)
Chain of Sodium-dependent dopamine transporter (Q01959 whole entry): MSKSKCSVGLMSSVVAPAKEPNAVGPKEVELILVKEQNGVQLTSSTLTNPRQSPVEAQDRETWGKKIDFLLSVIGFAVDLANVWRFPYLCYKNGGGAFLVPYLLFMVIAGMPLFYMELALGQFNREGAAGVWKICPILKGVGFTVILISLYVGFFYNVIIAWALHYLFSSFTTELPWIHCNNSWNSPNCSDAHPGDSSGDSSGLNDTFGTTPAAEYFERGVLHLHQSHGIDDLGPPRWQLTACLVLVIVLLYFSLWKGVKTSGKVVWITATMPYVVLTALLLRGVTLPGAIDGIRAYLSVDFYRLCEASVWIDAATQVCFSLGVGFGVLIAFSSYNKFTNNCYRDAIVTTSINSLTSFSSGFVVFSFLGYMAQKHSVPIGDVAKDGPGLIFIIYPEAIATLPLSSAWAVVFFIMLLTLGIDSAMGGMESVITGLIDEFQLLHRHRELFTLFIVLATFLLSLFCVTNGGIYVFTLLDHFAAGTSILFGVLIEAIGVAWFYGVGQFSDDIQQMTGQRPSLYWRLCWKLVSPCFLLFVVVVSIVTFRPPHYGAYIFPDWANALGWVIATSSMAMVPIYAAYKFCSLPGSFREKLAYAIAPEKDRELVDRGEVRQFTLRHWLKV

[14] = molecular target: Histamine H3 receptor (Homo sapiens, UniProt Q9Y5N1)
Chain of Histamine H3 receptor (Q9Y5N1 whole entry): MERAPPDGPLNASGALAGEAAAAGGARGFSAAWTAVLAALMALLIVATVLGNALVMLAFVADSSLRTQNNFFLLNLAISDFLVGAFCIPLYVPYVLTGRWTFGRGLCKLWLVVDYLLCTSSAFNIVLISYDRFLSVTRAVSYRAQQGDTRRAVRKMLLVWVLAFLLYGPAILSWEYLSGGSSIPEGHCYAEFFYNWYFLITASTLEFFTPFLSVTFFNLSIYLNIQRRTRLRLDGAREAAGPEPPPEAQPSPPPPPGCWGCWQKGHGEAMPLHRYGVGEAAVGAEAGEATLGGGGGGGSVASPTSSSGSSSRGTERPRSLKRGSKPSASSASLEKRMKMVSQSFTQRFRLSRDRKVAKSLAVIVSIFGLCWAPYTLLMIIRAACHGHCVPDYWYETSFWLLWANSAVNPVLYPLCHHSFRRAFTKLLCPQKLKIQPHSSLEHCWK

[15] = molecular target: Acetylcholinesterase (Homo sapiens, UniProt P22303); assay type: functional
[16] = molecular target: T3, Prostaglandin G/H synthase 1; assay type: functional; remark: listed apart in the source
[17] = molecular target: Sodium-dependent noradrenaline transporter (Homo sapiens, UniProt P23975)
Chain of Sodium-dependent noradrenaline transporter (P23975 whole entry): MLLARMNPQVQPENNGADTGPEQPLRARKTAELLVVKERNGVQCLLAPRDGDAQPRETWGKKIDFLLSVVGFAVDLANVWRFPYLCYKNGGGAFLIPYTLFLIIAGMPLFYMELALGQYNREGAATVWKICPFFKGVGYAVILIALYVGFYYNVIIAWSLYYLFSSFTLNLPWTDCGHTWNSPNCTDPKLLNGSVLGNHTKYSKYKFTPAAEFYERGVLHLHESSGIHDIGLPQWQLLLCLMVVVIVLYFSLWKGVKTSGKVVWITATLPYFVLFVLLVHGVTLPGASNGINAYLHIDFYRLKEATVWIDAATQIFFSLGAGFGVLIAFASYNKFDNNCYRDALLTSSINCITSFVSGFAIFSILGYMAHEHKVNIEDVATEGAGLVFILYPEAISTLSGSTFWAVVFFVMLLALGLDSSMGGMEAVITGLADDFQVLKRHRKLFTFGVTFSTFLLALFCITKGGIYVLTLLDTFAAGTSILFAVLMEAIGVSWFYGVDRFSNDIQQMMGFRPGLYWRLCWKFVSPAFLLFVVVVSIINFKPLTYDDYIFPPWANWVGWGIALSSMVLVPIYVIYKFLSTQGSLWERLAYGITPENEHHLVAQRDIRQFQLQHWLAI

[18] = molecular target: cGMP-inhibited 3',5'-cyclic phosphodiesterase 3A (Homo sapiens, UniProt Q14432); assay type: functional
Chain of cGMP-inhibited 3',5'-cyclic phosphodiesterase 3A (Q14432 whole entry): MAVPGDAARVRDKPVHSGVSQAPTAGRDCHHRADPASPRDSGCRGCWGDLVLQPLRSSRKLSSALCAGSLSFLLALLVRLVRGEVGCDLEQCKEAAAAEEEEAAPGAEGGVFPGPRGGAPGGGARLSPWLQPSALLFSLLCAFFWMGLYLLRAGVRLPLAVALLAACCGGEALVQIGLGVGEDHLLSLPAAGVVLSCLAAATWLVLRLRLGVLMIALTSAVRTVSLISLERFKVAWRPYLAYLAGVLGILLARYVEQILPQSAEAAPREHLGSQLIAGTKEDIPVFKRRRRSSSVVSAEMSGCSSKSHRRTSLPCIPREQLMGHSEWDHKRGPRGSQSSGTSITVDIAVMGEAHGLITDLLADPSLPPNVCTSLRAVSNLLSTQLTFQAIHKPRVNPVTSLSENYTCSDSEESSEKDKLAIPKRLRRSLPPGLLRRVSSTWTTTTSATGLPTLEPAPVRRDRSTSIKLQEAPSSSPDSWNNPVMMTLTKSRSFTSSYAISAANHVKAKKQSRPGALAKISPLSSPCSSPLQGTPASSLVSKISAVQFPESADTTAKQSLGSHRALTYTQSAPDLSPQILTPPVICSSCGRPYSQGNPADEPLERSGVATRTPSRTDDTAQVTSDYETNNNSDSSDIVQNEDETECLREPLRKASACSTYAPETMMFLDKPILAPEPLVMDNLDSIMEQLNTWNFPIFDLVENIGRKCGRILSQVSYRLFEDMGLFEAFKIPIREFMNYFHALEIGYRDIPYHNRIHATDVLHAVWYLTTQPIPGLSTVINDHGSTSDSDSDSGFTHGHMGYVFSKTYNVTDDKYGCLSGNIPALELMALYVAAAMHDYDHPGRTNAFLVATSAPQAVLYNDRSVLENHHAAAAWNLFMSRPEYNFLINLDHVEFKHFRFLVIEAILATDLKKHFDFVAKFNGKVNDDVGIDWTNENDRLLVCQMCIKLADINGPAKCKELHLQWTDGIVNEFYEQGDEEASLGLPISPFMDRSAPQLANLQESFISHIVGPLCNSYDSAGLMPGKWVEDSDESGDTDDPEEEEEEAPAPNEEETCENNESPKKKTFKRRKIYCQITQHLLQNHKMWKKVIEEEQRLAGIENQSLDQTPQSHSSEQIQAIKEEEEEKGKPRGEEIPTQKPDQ

[19] = molecular target: Voltage-gated inwardly rectifying potassium channel KCNH2 (Homo sapiens, UniProt Q12809); assay type: functional; conditions: read-out: AC50
Further: assay procedure not described here.

Compound	AC50 [1] [µM]	AC50 [2] [µM]	AC50 [3] [µM]	AC50 [4] [µM]	AC50 [5] [µM]	AC50 [6] [µM]	AC50 [7] [µM]	AC50 [8] [µM]	AC50 [9] [µM]	AC50 [10] [µM]	AC50 [11] [µM]	AC50 [12] [µM]	AC50 [13] [µM]	AC50 [14] [µM]	AC50 [15] [µM]	AC50 [16] [µM]	AC50 [17] [µM]	AC50 [18] [µM]	AC50 [19] [µM]
O=C(Nc1cccc2c(=O)cc(-c3nnn[nH]3)oc12)c1ccc(OCCCCc2ccccc2)cc1	4.64	> 30	4.1	8.21	10.1	> 30	> 30	26.7	4.45	> 30	> 30	> 30	8.24	> 30	> 30	> 30	7.06	> 30	–
CN(C)C(=O)c1nc(CNC(=O)CN)n(-c2ccc(Cl)cc2C(=O)c2ccccc2Cl)n1 [RILMAZAFONE]	> 30	> 30	> 30	> 30	> 30	> 30	> 30	13.5	> 30	> 30	> 30	> 30	> 30	> 30	> 30	> 30	> 30	> 30	–
CC(C)(N)C(=O)N[C@H](Cc1c[nH]c2ccccc12)C(=O)N[C@H](Cc1c[nH]c2ccccc12)NC=O [MACIMORELIN]	0.75	> 30	> 30	> 30	> 30	> 30	> 30	> 30	> 30	> 30	> 30	> 30	> 30	> 30	> 30	> 30	> 30	> 30	–
CN1CCC[C@H]1c1cccnc1 [NICOTINE]	> 30	> 30	> 30	> 30	> 30	> 30	> 30	22	> 30	> 30	> 30	> 30	> 30	> 30	> 30	> 30	> 30	> 30	–
CC(=O)Oc1ccccc1C(=O)Nc1ncc([N+](=O)[O-])s1 [NITAZOXANIDE]	> 30	> 30	> 30	> 30	> 30	> 30	> 30	0.0114	> 30	> 10	> 30	> 30	> 30	> 30	> 10	9.53	> 30	> 30	–
CCCCCCCCCCC[C@@H](C[C@@H]1OC(=O)[C@H]1CCCCCC)OC(=O)[C@H](CC(C)C)NC=O [ORLISTAT]	> 30	> 30	> 30	> 30	> 30	> 30	> 30	> 30	> 30	> 30	> 30	> 30	> 30	> 30	–	> 30	> 30	> 30	> 30
N[C@@H](CSSC[C@H](N)C(=O)O)C(=O)O [CYSTINE]	> 30	> 30	> 30	> 30	> 30	> 30	> 30	> 30	> 30	> 30	> 30	> 30	> 30	> 30	> 30	> 30	> 30	> 30	–
C#C[C@]1(O)CC[C@H]2[C@@H]3CCC4=C(CCC(=O)C4)[C@H]3CC[C@@]21C [NORETHYNODREL]	> 30	> 30	> 30	> 30	> 30	> 30	> 30	11.8	> 30	24.2	> 30	> 30	> 30	> 30	> 30	> 30	> 30	23.4	–
CC(C)COc1ccc(CNC(=O)N(Cc2ccc(F)cc2)C2CCN(C)CC2)cc1 [PIMAVANSERIN]	16.7	> 30	> 30	> 30	5.78	> 30	4.6	> 30	2.66	> 3	> 30	14.1	12.8	28.7	> 30	> 30	6.92	> 30	–
CCCCCOc1ccc(-c2cc(-c3ccc(C(=O)N[C@H]4C[C@@H](O)[C@@H](O)NC(=O)[C@@H]5[C@@H](O)[C@@H](C)CN5C(=O)[C@H]([C@H](O)CC(N)=O)NC(=O)[C@H]([C@H](O)[C@@H](O)c5ccc(O)c(OS(=O)(=O)O)c5)NC(=O)[C@@H]5C[C@@H](O)CN5C(=O)[C@H]([C@@H](C)O)NC4=O)cc3)no2)cc1 [MICAFUNGIN] (X1-[Orn(4R-OH,5R-OH)]T[Hyp][hTyr(3S-OH,4S-OH,3'-OSO3H)][Gln(3R-OH)][Pro(3S-OH,4S-Me)]; lactam 1-C)	7.68	> 30	> 30	29.5	> 30	> 30	> 30	> 30	> 30	7.12	> 30	> 30	21.7	> 30	> 30	> 30	14.6	> 30	–

— ChEMBL document CHEMBL5291721, “A preclinical secondary pharmacology resource illuminates target-adverse drug reaction associations of marketed drugs” (Nat Commun, 2023)
